Experimental data published in patent US6395735B2, “Pharmaceutical compounds” (Eli Lilly and Company, priority 1997, dated 2002).

The compounds below were run against T1, human m4 receptors (Homo sapiens, UniProt P08173) (assay: Stimulation of cyclic AMP production in pertussis toxin-treated CHO-m4 cells). Details: forskolin present.
T1 construct: expressed in transfected cells; host or cells: CHO K1 cells
Type: cell-based
Experimental: Cyclic AMP Accumulation in Pertussis Toxin-Treated CHO m4 Cells. CHO K1 cells transfected with human m4 receptors were grown to near confluency in T-150 flasks using Dulbecco's Modified Eagle Medium (DMEM) containing 10% fetal bovine serum. Cells were detached with 0.05% trypsin, 0.53 mM EDTA, and were suspended in medium containing 100 ng/ml pertussis toxin. Cells were plated at 30,000 cells per well into 96 well plates. Eighteen to twenty hours later the medium was removed and the cells were washed with serum-bee medium. Attached cells were incubated at 37 C for one hour after addition of […] of serum free DMEM containing 1 mM 3-isobutyl-1-methylxanthine and 1 mM forskolin plus or minus drugs being tested. Incubations were terminated with […] per well of serum free DMEM containing 0.3% triton-X-100. After stopping incubations the plates were allowed to sit for 20 minutes to extract cAMP and samples were then diluted 2.5-fold and were assayed using the scintillation proximity assay of Amersham (Arlington Heights, Ill.).
Representative results from the M4 assay are as follows
Stimulation of cyclic AMP production in CHO-m4 cells.

T1 sequence (P08173 whole entry): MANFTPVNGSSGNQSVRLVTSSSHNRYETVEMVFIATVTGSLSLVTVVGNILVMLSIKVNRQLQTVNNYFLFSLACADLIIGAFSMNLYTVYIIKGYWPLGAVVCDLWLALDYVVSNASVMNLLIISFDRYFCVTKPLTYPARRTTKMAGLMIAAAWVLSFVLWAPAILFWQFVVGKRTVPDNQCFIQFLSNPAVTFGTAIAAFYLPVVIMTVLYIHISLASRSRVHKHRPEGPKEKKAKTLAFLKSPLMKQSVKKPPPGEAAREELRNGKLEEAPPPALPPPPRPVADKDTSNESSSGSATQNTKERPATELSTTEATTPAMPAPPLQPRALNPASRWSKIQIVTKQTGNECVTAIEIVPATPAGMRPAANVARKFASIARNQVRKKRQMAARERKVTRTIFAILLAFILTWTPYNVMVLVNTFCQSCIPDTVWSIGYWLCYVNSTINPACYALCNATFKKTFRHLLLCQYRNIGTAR

Structure (SMILES)	% Maximum Stimulation Compared to Oxotremorine-M
O=C(NC1c2cc(N=CN3CCCC3)ccc2CC1O)C1CCCCC1 (stereo not drawn) [Compound 11]	34%
O=C(NC1c2cc(N=CN3CCCC3)ccc2CC1O)c1cccnc1Cl (stereo not drawn) [Compound 12]	26%
N#Cc1ccc(C(=O)NC2c3cc(N=CN4CCCC4)ccc3CC2O)cc1 (stereo not drawn) [Compound 13]	<20%
O=C(NC1c2cc(N=CN3CCCC3)ccc2CC1O)c1cc(Cl)cc(Cl)c1 (stereo not drawn) [Compound 14]	100%
O=C(NC1c2cc(N=CN3CCCC3)ccc2CC1O)c1cccc2ccccc12 (stereo not drawn) [Compound 15]	76%
O=C(NC1c2cc(N=CN3CCCC3)ccc2CC1O)c1ccc2ccccc2c1 (stereo not drawn) [Compound 17]	56%
O=C(NC1c2cc(N=CN3CCCC3)ccc2CC1O)c1ccc(C(F)(F)F)cc1 (stereo not drawn) [Compound 18]	61%
O=C(NC1c2cc(N=CN3CCCC3)ccc2CC1O)C(F)(F)F (stereo not drawn) [Compound 19]	<20%
O=C(NC1c2cc(N=CN3CCCC3)ccc2CC1O)c1ccc([N+](=O)[O-])cc1Cl (stereo not drawn) [Compound 20]	69%
O=C(NC1c2cc(N=CN3CCCC3)ccc2CC1O)c1cccs1 (stereo not drawn) [Compound 21]	23%
O=C(NC1c2cc(N=CN3CCCC3)ccc2CC1O)c1cc(F)cc(F)c1 (stereo not drawn) [Compound 23]	<20%
O=C(NC1c2cc(N=CN3CCCC3)ccc2CC1O)c1cccc(F)c1F (stereo not drawn) [Compound 24]	22%
O=C(NC1c2cc(N=CN3CCCC3)ccc2CC1O)c1cccc([N+](=O)[O-])c1 (stereo not drawn) [Compound 25]	43%
CCCc1ccc(C(=O)NC2c3cc(N=CN4CCCC4)ccc3CC2O)cc1 (stereo not drawn) [Compound 26]	<20%
Cc1cc(C)c(C(=O)NC2c3cc(N=CN4CCCC4)ccc3CC2O)c(C)c1 (stereo not drawn) [Compound 27]	<20%
O=C(CSc1ccccc1)NC1c2cc(N=CN3CCCC3)ccc2CC1O (stereo not drawn) [Compound 28]	<20%
O=C(NC1c2cc(N=CN3CCCC3)ccc2CC1O)c1c(F)ccc(F)c1F (stereo not drawn) [Compound 29]	<20%
O=C(NC1c2cc(N=CN3CCCC3)ccc2CC1O)c1cccc(F)c1 (stereo not drawn) [Compound 30]	<20%
O=C(NC1c2cc(N=CN3CCCC3)ccc2CC1O)c1cccc(Cl)c1Cl (stereo not drawn) [Compound 31]	45%

Structure (SMILES)	% Maximum Stimulation Compared to Oxotremorine-M
O=C(NC1c2cc(N=CN3CCCC3)ccc2CC1O)c1cc(F)ccc1F (stereo not drawn) [Compound 32]	<20%
O=C(NC1c2cc(N=CN3CCCC3)ccc2CC1O)c1ccc(F)c(F)c1F (stereo not drawn) [Compound 33]	45%
COc1cccc(C(=O)NC2c3cc(N=CN4CCCC4)ccc3CC2O)c1 (stereo not drawn) [Compound 34]	45%
O=C(NC1c2cc(N=CN3CCCC3)ccc2CC1O)c1ccccc1C(F)(F)F (stereo not drawn) [Compound 35]	65%
COc1cc(OC)cc(C(=O)NC2c3cc(N=CN4CCCC4)ccc3CC2O)c1 (stereo not drawn) [Compound 36]	<20%
Cc1cccc(C(=O)NC2c3cc(N=CN4CCCC4)ccc3CC2O)c1 (stereo not drawn) [Compound 37]	76%
N#Cc1cccc(C(=O)NC2c3cc(N=CN4CCCC4)ccc3CC2O)c1 (stereo not drawn) [Compound 38]	<20%
O=C(NC1c2cc(N=CN3CCCC3)ccc2CC1O)c1cc(F)c(F)c(F)c1 (stereo not drawn) [Compound 39]	43%
O=C(NC1c2cc(N=CN3CCCC3)ccc2CC1O)c1cc(F)c(F)c(F)c1F (stereo not drawn) [Compound 40]	96%
O=C(NC1c2cc(N=CN3CCCC3)ccc2CC1O)C1CCC1 (stereo not drawn) [Compound 41]	<20%
O=C(NC1c2cc(N=CN3CCCC3)ccc2CC1O)c1ccccc1Cl (stereo not drawn) [Compound 44]	41%
CCCCc1ccc(C(=O)N[C@@H]2c3cc(N=CN4CCCC4)ccc3C[C@H]2O)cc1 [Compound 45]	<20%
O=C(N[C@@H]1c2cc(N=CN3CCCC3)ccc2C[C@H]1O)c1c(Cl)cccc1Cl [Compound 46]	154%
O=C(N[C@@H]1c2cc(N=CN3CCCC3)ccc2C[C@H]1O)c1c(Cl)cc(Cl)cc1Cl [Compound 47]	<20%
CN(C)C=Nc1ccc2c(c1)[C@@H](NC(=O)c1ccccc1)[C@H](O)C2 [Compound 57]	5%
CN(C)C=Nc1ccc2c(c1)[C@@H](NC(=O)c1cc(Cl)cc(Cl)c1)[C@H](O)C2 [Compound 58]	74%
CCCCOc1ccc(C(=O)N[C@@H]2c3cc(N=CN(C)C)ccc3C[C@H]2O)cc1 [Compound 59]	22%
CN(C)C=Nc1ccc2c(c1)[C@@H](NC(=O)c1cc(C(F)(F)F)cc(C(F)(F)F)c1)[C@H](O)C2 [Compound 60]	100%
CN(C)C=Nc1ccc2c(c1)[C@@H](NC(=O)c1cccc(C#N)c1)[C@H](O)C2 [Compound 61]	39%

Structure (SMILES)	% Maximum Stimulation Compared to Oxotremorine-M
CN(C)C=Nc1ccc2c(c1)[C@@H](NC(=O)C1CCCC1)[C@H](O)C2 [Compound 62]	27%
CN(C)C=Nc1ccc2c(c1)[C@@H](NC(=O)c1ccc3ccccc3c1)[C@H](O)C2 [Compound 63]	13%
CN(C)C=Nc1ccc2c(c1)[C@@H](NC(=O)c1cc(F)cc(C(F)(F)F)c1)[C@H](O)C2 [Compound 64]	52%
CN(C)C=Nc1ccc2c(c1)[C@@H](NC(=O)c1cc(F)c(F)c(F)c1)[C@H](O)C2 [Compound 65]	30%
CN(C)C=Nc1ccc2c(c1)[C@@H](NC(=O)C(F)(F)F)[C@H](O)C2 [Compound 66]	0%
CCc1ccc(C(=O)N[C@@H]2c3cc(N=CN(C)C)ccc3C[C@H]2O)cc1 [Compound 67]	7%
CN(C)C=Nc1ccc2c(c1)[C@@H](NC(=O)c1sccc1Cl)[C@H](O)C2 [Compound 68]	0%
CN(C)C=Nc1ccc2c(c1)[C@@H](NC(=O)c1cc3ccccc3s1)[C@H](O)C2 [Compound 69]	14%
CCCCc1ccc(C(=O)N[C@@H]2c3cc(N=CN(C)C)ccc3C[C@H]2O)cc1 [Compound 70]	18%
CN(C)C=Nc1ccc2c(c1)[C@@H](NC(=O)c1cccc3ccccc13)[C@H](O)C2 [Compound 71]	95%
CN(C)C=Nc1ccc2c(c1)[C@@H](NS(=O)(=O)c1ccc(Cl)c(Cl)c1)[C@H](O)C2 [Compound 72]	4%
CN(C)C=Nc1ccc2c(c1)[C@@H](NC(=O)c1cccnc1Cl)[C@H](O)C2 [Compound 73]	11%
CN(C)C=Nc1ccc2c(c1)[C@@H](NC(=O)c1ccc(Cl)nc1)[C@H](O)C2 [Compound 74]	8%
CN(C)C=Nc1ccc2c(c1)[C@@H](NC(=O)c1ccc(C(F)(F)F)cc1)[C@H](O)C2 [Compound 75]	6%
CC(=Nc1ccc2c(c1)[C@@H](NC(=O)c1ccc(Cl)c(Cl)c1)[C@H](O)C2)N(C)C [Compound 76]	130%
O=C(N[C@@H]1c2cc(N=CN3CCCCC3)ccc2C[C@H]1O)c1ccc(Cl)c(Cl)c1 [Compound 77]	214%
O=C(N[C@@H]1c2cc(N=CN3CCCCC3)ccc2C[C@H]1O)c1cccc(Cl)c1Cl [Compound 88]	52%
O=C(N[C@@H]1c2cc(N=CN3CCCCC3)ccc2C[C@H]1O)c1cc(Cl)cc(Cl)c1 [Compound 97]	36%
O=C(N[C@@H]1c2cc(N=CN3CCCCC3)ccc2C[C@H]1O)c1cc(F)cc(F)c1 [Compound 98]	73%
